These are literature values, as cited in patent US4801594A, “Aromatase inhibitors” (Eli Lilly and Company, priority 1984, dated 1989).

SMILES strings stand for the structures.

The test system of this series is breast cancer. To be noted: known aromatase inhibitors; see Cancer Research, Vol. 42, Suppl. 8: 3261s (1982).

For `CCC1(c2ccc(N)cc2)CCC(=O)NC1=O` (centres unmarked) [aminoglutethimide], the “effect in treatment of breast cancer” value is listed as “beneficial effect”.

In the case of `C[C@]12C=CC(=O)C=C1CC[C@@H]1[C@@H]2CC[C@]2(C)OC(=O)CC[C@@H]12` [testolactone], the “effect in treatment of breast cancer” value is “beneficial effect”.
